Patent EP0900210B1, “ANTIVIRALLY ACTIVE HETEROCYCLIC AZAHEXANE DERIVATIVES” (Novartis AG, priority 1996, dated 1997)
Read-outs that look alike come from different tables or passages of the source.

Key:
[1] = target: T1, HIV-1-protease (Human immunodeficiency virus type 1 group M subtype B, UniProt P04585); assay: Inhibition of HIV-1-protease with icosapeptide substrate […] (HPLC); format: biochemical
T1 construct: made in house
Experimental: The inhibitory action of the compounds of formula I on the proteolytic activity of HIV-1-protease can be shown, for example, according to known procedures (see A. D. Richards et al., J. Biol. Chem. 265(14), 7733-7736 (1990)). In that method the inhibition of the action of HIV-1-protease (preparation: see S. Billich et al., J. Biol. Chem. 263(34), 17905-17908 (1990)) is measured in the presence of the icosapeptide […] (a synthetic substrate of HIV-1-protease, prepared by peptide synthesis in accordance with known procedures (see J. Schneider et al., Cell 54, 363-368 (1988)), which contains as substrate analogue one of the cleavage sites of the gag-precursor protein (natural substrate of HIV-1-protease). That substrate and its cleavage products are analysed by high performance liquid chromatography (HPLC).
The test compound is dissolved in dimethyl sulfoxide. The enzymatic test is carried out by adding suitable dilutions of the inhibitor in 20 mM β-morpholinoethanesulfonic acid (MES) buffer pH 6.0 to the test mixture. That mixture consists of the above-mentioned icosapeptide (122 µM) in 20 mM MES-buffer pH 6.0. 100 µl are used per test batch. The reaction is started by the addition of […] of HIV-1-protease solution and is stopped after one hour's incubation at 37°C by the addition of 10 µl of 0.3M HClO4. After centrifugation of the sample at 10 000 x g for 5 minutes, 20 µl of the resulting supernatant are applied to a 125 x 4.6 mm Nucleosil® C18-5m-HPLC column (reversed-phase material supplied by Macherey & Nagel, Düren, FRG, based on silica gel that has been charged with C18alkyl chains). The uncleaved icosapeptide and its cleavage products are eluted from the column by means of the following gradient: 100 % eluant 1 → 50 % eluant 1 + 50 % eluant 2 (eluant 1: 10 % acetonitrile, 90 % H2O, 0.1 % trifluoroacetic acid (TFA); eluant 2: 75 % acetonitrile, 25 % H2O, 0.08 % TFA) for 15 minutes, throughflow rate 1 ml/min. The quantification of the eluted peptide fragments is carried out by measuring the peak height of the cleavage product at 215 nm.
Using the test system described above with the icosapeptide […], the IC50 values given below are obtained for the following Examples: […]

[2] = system: 451/76F strain; details: 451/76F strain established against Lasinavir; comparison with saquinavir, indinavir, ritonavir
Excerpt: (§1) By way of PCR-supported mutagenesis and cloning, HIV-1 protease mutants are generated that are based on the infectious clone pNL4-3 (freely available via the "NIH AIDS reference and reagent program", the original reference is A. Adachi et al. J. Virol (1986) 59, 284-91 - but it can, of course, be any other HIV clone, or even clinical material, provided that comparability is ensured). […] The cloned fragments are, for example, only 500 base pairs in length, all of the remainder being unchanged. By using mutations in always the same clone, direct comparability is ensured, which would not be the case in a direct comparison of clinical samples or of different HIV clones. […] That system is used as a transient DNA transfection system for tests: • 1) in order to identify possible cross-resistances of protease variants to several protease inhibitors; and • 2) in order to establish the potency and resistance profile of novel inhibitor candidates.
(§2) Instead of the strains mentioned, there may be used any human T4-positive cells, such as the HeLa T4 cells, deposited under that name by Richard Axel and Paul Maddon in "NIH AIDS reference and reagent program" and obtainable via that source.

[3] = system: 46I/47V/50V (VX478); assay: Transient DNA transfection assay in HeLaT4 cells, other resistant strains; format: cell-based, HIV-1; details: 10nM; strains e.g. 46I/47V/50V (VX478); not quantified
Excerpt: as §1, §2

[4] = system: HIV-1/MN; assay: Protection of MT-2 cells against HIV infection (reverse transcriptase activity in supernatant); format: cell-based; details: Human immunodeficiency virus 1, MT2, 96 h; read-out: ED90 (the source's name)
Experimental: For this test, MT-2-cells infected with HIV-1/MN are used. MT-2-cells have been transformed with HTLV-1 (a virus causing leukaemia) and a continuous producer thereof; they are therefore especially sensitive to the cytopathogenic effect of HIV. MT-2-cells can be obtained via the AIDS Research and Reference Reagent Program, Division of AIDS, NIAID, NIH from Dr. Douglas Richman (see J. Biol. Chem. 263, 5870-5875 (1988) and also Science 229, 563-566 1985)). The MT-2-cells are cultured in RPMI 1640-medium (Gibco, Scotland; RPMI comprises an amino acid mixture without glutamine) supplemented with 10% heat-inactivated foetal calf serum, glutamine and standard antibiotics. In all cases the cells, and also the virus stock solution used for the infection (HIV-1/MN), are free of mycoplasms. […] The titre of the HIV-1/MN virus stock solution (determined by titration onto MT-2-cells) is 4.2 x 10^5 TCID50/ml (TCID50 = Tissue Culture Infective Dose = dose that infects 50 % of the MT-2-cells). […] Prior to the test, 0.1 % (v/v) [alpha-^32P]dTTP is added to aliquots of the solution in order to establish a radioactivity of 10 µCi/ml.
After mixing, the plate is incubated for 2 hours at 37°C. […] The radioactivity on the filters is measured in a Matrix Packard 96-well counter (Packard, Zürich, Switzerland). […]

[5] = system: HIV-1 (infectious clone pNL4-3); assay: Transient DNA transfection assay in HeLaT4 cells, in vitro potency; format: cell-based; details: Human immunodeficiency virus 1, HeLaT4
Excerpt: as §1, §2

[6] = Pharmacokinetics: plasma level in mice after oral administration; format: in vivo, female BALB/c mice; details: mouse, oral administration of 120 mg/kg
Experimental: The blood is centrifuged (12 000 x g, 5 min) and the plasma removed.
The flow rate is 1 ml/min.

[7] = icosapeptide […] 122 µM, 20 mM MES pH 6.0, one hour at 37°C, read-out: IC50

Compound | IC50 [1, 7] | other results
COC(=O)N[C@H](C(=O)N[C@@H](Cc1ccccc1)[C@@H](O)CN(Cc1ccc(-c2nnn(C)n2)cc1)NC(=O)[C@@H](NC(=O)OC)C(C)(C)C)C(C)(C)C [Example 27, 1-[4-(2-Methyl-2H-tetrazol-5-yl)-phenyl]-4(S)-hydroxy-5(S)-2,5-bis[N-(N-methoxycarbonyl-(L)-tert-leucyl)amino]-6-phenyl-2-azahexane] | 27 nM | 
COC(=O)N[C@H](C(=O)N[C@@H](Cc1ccccc1)[C@@H](O)CN(Cc1ccc(-c2ccccn2)cc1)NC(=O)[C@@H](NC(=O)OC)C(C)C)C(C)C [Example 37, 1-[4-(Pyridin-2-yl)-phenyl]-4(S)-hydroxy-5(S)-2,5-bis[N-(N-methoxycarbonyl-(L)-valyl)amino]-6-phenyl-2-azahexane] | 29 nM | 
CCOC(=O)N[C@H](C(=O)NN(Cc1ccc(-c2cncs2)cc1)C[C@H](O)[C@H](Cc1ccccc1)NC(=O)[C@@H](NC(=O)OC)C(C)C)C(C)C [Example 8, 1-[4-(Thiazol-5-yl)-phenyl]-4(S)-hydroxy-2-N-(N-ethoxycarbonyl-(L)-valyl)-amino-5(S)-N-(N-methoxycarbonyl-(L)-valyl)amino-6-phenyl-2-azahexane] | 10 nM | 
CC[C@H](C)[C@H](NC(=O)OC)C(=O)NN(Cc1ccc(-c2ccccn2)cc1)C[C@H](O)[C@H](Cc1ccccc1)NC(=O)[C@@H](NC(=O)OC)C(C)C [Example 51, 1-[4-(Pyridin-2-yl)-phenyl]-4(S)-hydroxy-2-N-(N-methoxy-carbonyl-(L)-iso-leucyl)amino-5(S)-N-(N-methoxycarbonyl-(L)-valyl)amino-6-phenyl-2-azahexane] |  | IC50 [1]: 34 nM
COC(=O)N[C@H](C(=O)N[C@@H](Cc1ccccc1)[C@@H](O)CN(Cc1ccc(-c2cncs2)cc1)NC(=O)[C@@H](NC(=O)OC)C(C)C)C(C)C [Example 1, 1-[4-(Thiazol-5-yl)-phenyl]-4(S)-hydroxy-5(S)-2,5-bis[N-(N-methoxycarbonyl-(L)-valyl)amino]-6-phenyl-2-azahexane] | 32 nM | 
COC(=O)N[C@H](C(=O)N[C@@H](Cc1ccccc1)[C@@H](O)CN(Cc1ccc(-c2ccccn2)cc1)NC(=O)[C@@H](NC(=O)OC)C(C)(C)C)C(C)(C)C [Example 46, 1-[4-(Pyridin-2-yl)-phenyl]-4(S)-hydroxy-5(S)-2,5-bis[N-(N-methoxycarbonyl-(L)-tert-leucyl)amino]-6-phenyl-2-azahexane] | 26 nM | activity against a resistant variant [2]: comparable with saquinavir and better than that of indinavir; activity compared with other strains [3]: more potent (not quantified) than that of saquinavir, ritonavir and indinavir; EC90 [4]: 3 nM; IC90 [5]: < 30 nM; concentration at 0.5 h ([6]; 30 min after administration): 21.8 µM; concentration at 1.5 h ([6]; 90 min after administration): 31.8 µM
COC(=O)N[C@H](C(=O)N[C@@H](Cc1ccccc1)[C@@H](O)CN(Cc1ccc(-c2nccs2)cc1)NC(=O)[C@@H](NC(=O)OC)C(C)C)C(C)C [Example 20, 1-[4-(Thiazol-2-yl)-phenyl]-4(S)-hydroxy-5(S)-2,5-bis[N-(N-methoxycarbonyl-(L)-valyl)amino]-6-phenyl-2-azahexane] | 15 nM | 
COC(=O)N[C@H](C(=O)N[C@@H](Cc1ccccc1)[C@@H](O)CN(Cc1ccc(-c2nnnn2C)cc1)NC(=O)[C@@H](NC(=O)OC)C(C)(C)C)C(C)(C)C [27 (1-methyl-1H-tetrazolyl isomer), 1-[4-(1-methyl-1H-tetrazol-5-yl)-phenyl]-4(S)-hydroxy-5(S)-2,5-bis[N-(N-methoxycarbonyl-(L)-tert-leucyl)amino]-6-phenyl-2-azahexane] | 51 nM | 
COC(=O)N[C@H](C(=O)N[C@@H](Cc1ccccc1)[C@@H](O)CN(Cc1ccc(-c2nccs2)cc1)NC(=O)[C@@H](NC(=O)OC)C(C)(C)C)C(C)(C)C [Example 16, 1-[4-(Thiazol-2-yl)-phenyl]-4(S)-hydroxy-5(S)-2,5-bis[N-(N-methoxycarbonyl-(L)-tert-leucyl)amino]-6-phenyl-2-azahexane] | 33 nM | 
CCOC(=O)N[C@H](C(=O)NN(Cc1ccc(-c2nccs2)cc1)C[C@H](O)[C@H](Cc1ccccc1)NC(=O)[C@@H](NC(=O)OC)[C@@H](C)CC)C(C)C [Example 22, 1-[4-(Thiazol-2-yl)-phenyl]-4(S)-hydroxy-2-N-(N-ethoxycarbonyl-(L)-valyl)amino-5(S)-N-(N-methoxycarbonyl-(L)-iso-leucyl)amino-6-phenyl-2-azahexane] | 40 nM | 
COC(=O)N[C@H](C(=O)N[C@@H](Cc1ccccc1)[C@@H](O)CN(Cc1ccc(-c2cccs2)cc1)NC(=O)[C@@H](NC(=O)OC)C(C)C)C(C)C [Example 45, 1-[4-(Thiophen-2-yl)-phenyl]-4(S)-hydroxy-5(S)-2,5-bis[N-(N-methoxycarbonyl-(L)-valyl)amino]-6-phenyl-2-azahexane] | 12 nM | 
